Among the test systems are DMS-273; OVCAR-5; M19-MEL; MCF7; NCI/ADR-RES; DLD-1; HOP-18; SNB-78; LOX IMVI; HOP-62; CCRF-CEM; A549; OVCAR-4; NCI-H522; A498; UACC-257; PC-3; Hs-578T; BT-549; T47D.
Assay in all cases: NCI anticancer screen, dose series, 48 h

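Cells were grown in 96-well plates and exposed to each compound for 48 hours at five concentrations; endpoints were interpolated linearly between bracketing concentrations, or set to the highest concentration if not reached. GI50 is the concentration that inhibits growth by half.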 Active and inactive are the calls of the source. Cut-off read from the data, not from the text of the source: active = GI50 up to about 1.1 µM and inactive = higher. Some results are limits rather than exact numbers.

`C[C@H]1COC(c2ccccn2)=N1`: the GI50 in the test with DMS-273, in the test on OVCAR-5, with M19-MEL, in the test with MCF7, in the test on NCI/ADR-RES and in the test with DLD-1 was > 100 µM (inactive) in each case. Moreover, the GI50 in the test on HOP-18, in the test with SNB-78, with LOX IMVI, with HOP-62, in the test with CCRF-CEM and in the test with A549 was > 100 µM (inactive) in each case. In addition, the GI50 in the test with OVCAR-4, in the test with NCI-H522, in the test with A498 and in the test on UACC-257 was > 100 µM (inactive) in each case.

`CCNCCCCNCC`: the GI50 is > 2550 µM (inactive) with DMS-273; > 3750 µM (inactive) in the test with OVCAR-5; > 2930 µM (inactive) in the test on M19-MEL; > 3750 µM (inactive) in the test on MCF7; > 3750 µM (inactive) in the test with NCI/ADR-RES; > 3750 µM (inactive) in the test with DLD-1. The GI50 in the test with HOP-18 was > 37.5 µM (inactive); in the test on SNB-78 it was > 3750 µM (inactive); in the test on LOX IMVI, > 3750 µM (inactive); in the test with HOP-62, > 3750 µM (inactive); with CCRF-CEM it was 1600 µM (inactive); with A549 it was > 3750 µM (inactive). Further, the GI50 in the test on OVCAR-4 was > 3750 µM (inactive); with NCI-H522, > 3240 µM (inactive); in the test with A498, > 3750 µM (inactive); in the test on UACC-257 it was > 3750 µM (inactive).

In the case of `Cc1cc(N(CCC#N)CCC#N)ccc1/N=N/c1cc(Cl)ccc1Cl`, the GI50 with DMS-273 is 14.4 µM (inactive); in the test on OVCAR-5, 14.4 µM (inactive); with M19-MEL, 13.7 µM (inactive); with DLD-1, 10.6 µM (inactive); in the test with HOP-18, 10.2 µM (inactive); in the test with SNB-78 it was 6.22 µM (inactive). For the same compound, the GI50 in the test on LOX IMVI is 3.62 µM (inactive); in the test with HOP-62 it was 19.5 µM (inactive); in the test on CCRF-CEM, 2.92 µM (inactive); in the test with A549 it was 19.2 µM (inactive); in the test with OVCAR-4, 3.07 µM (inactive); with NCI-H522, 1.49 µM (inactive). In addition, the results for the GI50 in the test on A498 and in the test on UACC-257 were 20.1 µM (inactive) and 10.7 µM (inactive), respectively.

Turning to `COc1cccc(/C=C/C(=O)c2sc(C(N)=S)nc2C)c1O`, the GI50 with DMS-273 was 28.6 µM (inactive); in the test with OVCAR-5 it was > 100 µM (inactive); in the test on M19-MEL, 34.4 µM (inactive); with DLD-1, 28.3 µM (inactive); with HOP-18, > 41.5 µM (inactive); in the test with SNB-78, > 100 µM (inactive). The GI50 in the test on LOX IMVI was 22.4 µM (inactive); with HOP-62, > 100 µM (inactive); with CCRF-CEM it was 21.4 µM (inactive); in the test on A549, > 100 µM (inactive); in the test on OVCAR-4 it was > 72.8 µM (inactive); with NCI-H522, > 48.3 µM (inactive). Also, the GI50 in the test with A498 and with UACC-257 was > 100 µM (inactive) throughout.

Take `CC1OC(n2cc(F)c(=O)[nH]c2=O)CCC1O` (configuration not stated): the GI50 in the test with DMS-273 was > 100 µM (inactive); in the test on PC-3, > 100 µM (inactive); with OVCAR-5, > 100 µM (inactive); in the test with M19-MEL, > 100 µM (inactive); with Hs-578T, 99.1 µM (inactive); in the test on MCF7, 30.1 µM (inactive). Moreover, the GI50 with NCI/ADR-RES is > 100 µM (inactive); in the test on DLD-1 it was > 100 µM (inactive); in the test with HOP-18, 67.5 µM (inactive); in the test on SNB-78 it was > 100 µM (inactive); with LOX IMVI, > 100 µM (inactive); in the test with HOP-62 it was > 87.1 µM (inactive). The GI50 was > 100 µM (inactive) with BT-549; > 100 µM (inactive) with CCRF-CEM; 67.5 µM (inactive) with A549; > 100 µM (inactive) with OVCAR-4; > 100 µM (inactive) in the test with T47D; > 95.1 µM (inactive) in the test with NCI-H522. The GI50 in the test on A498 is > 66.5 µM (inactive); with UACC-257 it was > 100 µM (inactive).

Consider `[N-]=[N+]=CC(=O)CCC(NC(=O)C(CCC(=O)C=[N+]=[N-])NC(=O)CCC(N)C(=O)O)C(=O)O` (configuration not stated), for which the GI50 with DMS-273, in the test on OVCAR-5, with M19-MEL, with MCF7, in the test with NCI/ADR-RES and in the test with DLD-1 was > 100 µM (inactive) each time. Moreover, the GI50 in the test on HOP-18, in the test with SNB-78, with LOX IMVI, with HOP-62, in the test on CCRF-CEM and with A549 was > 100 µM (inactive) in each case. Also, the GI50 in the test with OVCAR-4, in the test with NCI-H522, in the test with A498 and with UACC-257 was > 100 µM (inactive) in each case.

With `CN(C)CCC1(C2=CCCC2)CC/C(=C\c2ccccc2)C1=O` (configuration not stated), the GI50 with DMS-273 was 15.7 µM (inactive); with OVCAR-5, 19.6 µM (inactive); in the test with M19-MEL it was 15.2 µM (inactive); in the test with DLD-1 it was 17.3 µM (inactive); in the test on HOP-18 it was 15.8 µM (inactive); in the test with SNB-78 it was 19.7 µM (inactive). The GI50 is 17.1 µM (inactive) in the test with LOX IMVI; 16.1 µM (inactive) in the test with HOP-62; 17.1 µM (inactive) in the test with CCRF-CEM; 20.3 µM (inactive) with A549; 16.6 µM (inactive) in the test with OVCAR-4; 14.1 µM (inactive) with NCI-H522. For the same compound, the GI50 is 15.5 µM (inactive) in the test on A498 and 15.2 µM (inactive) in the test on UACC-257.

Consider `O=C(NCCNCCO)N/N=C/c1cccc([N+](=O)[O-])c1`, for which the GI50 with DMS-273, in the test with OVCAR-5, with M19-MEL, in the test on DLD-1, in the test with HOP-18 and with SNB-78 was > 100 µM (inactive) throughout. Further, the GI50 in the test on LOX IMVI, in the test on HOP-62, with CCRF-CEM, with A549, with OVCAR-4 and in the test with NCI-H522 was > 100 µM (inactive) each time. The GI50 with A498 and in the test with UACC-257 was > 100 µM (inactive) each time.

As to `COC(=O)C#CC(N)=O`, the GI50 was > 100 µM (inactive) in the test with DMS-273; > 100 µM (inactive) in the test with OVCAR-5; > 64.3 µM (inactive) with M19-MEL; > 100 µM (inactive) with DLD-1; 53.5 µM (inactive) in the test on HOP-18; > 100 µM (inactive) with SNB-78. The GI50 in the test on LOX IMVI was > 35.8 µM (inactive); in the test on HOP-62, > 100 µM (inactive); with CCRF-CEM, 13.9 µM (inactive); with A549, > 100 µM (inactive); in the test with OVCAR-4, > 100 µM (inactive); in the test with NCI-H522, > 63.1 µM (inactive). Besides, the GI50 in the test on A498 is > 100 µM (inactive); with UACC-257, 27.7 µM (inactive).

Consider `C/C(=N\N=C(/S)N1CCCCCC1)c1cccc[n+]1[O-]`, for which the GI50 with DMS-273 is 1.87 µM (inactive); in the test on OVCAR-5, 21.4 µM (inactive); with M19-MEL, 8.39 µM (inactive); in the test with Hs-578T, 33 µM (inactive); with MCF7, 2.64 µM (inactive); with DLD-1, 0.0279 µM (active). Also, the GI50 in the test with HOP-18 was 18.2 µM (inactive); in the test with SNB-78, 11 µM (inactive); in the test on LOX IMVI it was 4.52 µM (inactive); in the test with HOP-62 it was 1.12 µM (active); with BT-549, 16 µM (inactive); in the test on CCRF-CEM, 0.109 µM (active). Moreover, the GI50 in the test with A549 was 4.36 µM (inactive); in the test on OVCAR-4, 8.17 µM (inactive); in the test with T47D, 3.4 µM (inactive); in the test with NCI-H522, 0.592 µM (active); in the test on A498, 21.6 µM (inactive); in the test on UACC-257, 1.33 µM (inactive).

Turning to `NC(Cc1cc(I)c(O)c(I)c1)C(=O)O` (configuration not stated), the GI50 with DMS-273 is > 206 µM (inactive); in the test with OVCAR-5, > 427 µM (inactive); in the test with M19-MEL it was > 323 µM (inactive); with MCF7, > 394 µM (inactive); in the test with NCI/ADR-RES it was > 316 µM (inactive); in the test on DLD-1, 418 µM (inactive). Also, the GI50 is 466 µM (inactive) with HOP-18; > 500 µM (inactive) in the test on SNB-78; 209 µM (inactive) in the test on LOX IMVI; > 500 µM (inactive) with HOP-62; 255 µM (inactive) with CCRF-CEM; > 500 µM (inactive) in the test on A549. The GI50 in the test on OVCAR-4 was 211 µM (inactive); in the test on NCI-H522 it was 44.5 µM (inactive); in the test with A498, > 500 µM (inactive); in the test with UACC-257 it was 293 µM (inactive).

(Values after ChEMBL document CHEMBL1201862, “PubChem BioAssay data set” (2004).)
